Source: ChEMBL document CHEMBL3745625, “Design and synthesis of novel androgen receptor antagonists via molecular modeling” (Bioorg Med Chem, 2016)
The source made the active and inactive calls. No cut-off for these calls is given here.

Tests used:
[1] = tested on: LNCaP; test: Cytotoxicity against human LNCAP cells assessed as reduction in cell viability after 4 days by MTT assay in presence of DHT and E2; type: functional, cell-based; conditions: 96 h
[2] = tested on: LNCaP; test: Cytotoxicity against human LNCAP cells assessed as growth inhibition at 10 uM after 5 days by MTT assay relative to control; type: functional
[3] = molecular target: T1, Estrogen receptor (Homo sapiens) (UniProt P03372); test: Antagonist activity at human estrogen receptor expressed in mouse C2C12 cells at 5 uM pretreated for 1 day measured 36 hrs post transfection by luciferase reporter gene assay in presence of ER agonist estradiol; type: cell-based
T1 sequence (whole entry): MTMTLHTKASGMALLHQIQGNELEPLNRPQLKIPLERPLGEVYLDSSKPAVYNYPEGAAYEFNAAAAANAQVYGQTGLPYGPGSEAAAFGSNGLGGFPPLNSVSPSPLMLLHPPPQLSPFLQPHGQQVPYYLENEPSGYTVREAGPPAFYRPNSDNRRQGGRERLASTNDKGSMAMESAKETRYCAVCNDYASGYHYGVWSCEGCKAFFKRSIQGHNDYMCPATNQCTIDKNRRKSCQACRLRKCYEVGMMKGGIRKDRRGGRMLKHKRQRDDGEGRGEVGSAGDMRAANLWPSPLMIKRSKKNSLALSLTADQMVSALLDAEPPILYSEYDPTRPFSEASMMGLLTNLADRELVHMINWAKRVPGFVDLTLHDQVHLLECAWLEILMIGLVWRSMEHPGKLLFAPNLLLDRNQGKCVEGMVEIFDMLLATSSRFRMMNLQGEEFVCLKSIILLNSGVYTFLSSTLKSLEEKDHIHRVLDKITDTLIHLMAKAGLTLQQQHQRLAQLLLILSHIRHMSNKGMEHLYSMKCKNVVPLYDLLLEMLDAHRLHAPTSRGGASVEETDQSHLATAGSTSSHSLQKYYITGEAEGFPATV

[4] = molecular target: T2, Glucocorticoid receptor (Homo sapiens) (UniProt P04150); test: Antagonist activity at glucocorticoid receptor (unknown origin) expressed in mouse C2C12 cells at 5 uM pretreated for 1 day measured 36 hrs post transfection by luciferase reporter gene assay in presence of GR agonist […]; type: cell-based
T2 sequence (whole entry): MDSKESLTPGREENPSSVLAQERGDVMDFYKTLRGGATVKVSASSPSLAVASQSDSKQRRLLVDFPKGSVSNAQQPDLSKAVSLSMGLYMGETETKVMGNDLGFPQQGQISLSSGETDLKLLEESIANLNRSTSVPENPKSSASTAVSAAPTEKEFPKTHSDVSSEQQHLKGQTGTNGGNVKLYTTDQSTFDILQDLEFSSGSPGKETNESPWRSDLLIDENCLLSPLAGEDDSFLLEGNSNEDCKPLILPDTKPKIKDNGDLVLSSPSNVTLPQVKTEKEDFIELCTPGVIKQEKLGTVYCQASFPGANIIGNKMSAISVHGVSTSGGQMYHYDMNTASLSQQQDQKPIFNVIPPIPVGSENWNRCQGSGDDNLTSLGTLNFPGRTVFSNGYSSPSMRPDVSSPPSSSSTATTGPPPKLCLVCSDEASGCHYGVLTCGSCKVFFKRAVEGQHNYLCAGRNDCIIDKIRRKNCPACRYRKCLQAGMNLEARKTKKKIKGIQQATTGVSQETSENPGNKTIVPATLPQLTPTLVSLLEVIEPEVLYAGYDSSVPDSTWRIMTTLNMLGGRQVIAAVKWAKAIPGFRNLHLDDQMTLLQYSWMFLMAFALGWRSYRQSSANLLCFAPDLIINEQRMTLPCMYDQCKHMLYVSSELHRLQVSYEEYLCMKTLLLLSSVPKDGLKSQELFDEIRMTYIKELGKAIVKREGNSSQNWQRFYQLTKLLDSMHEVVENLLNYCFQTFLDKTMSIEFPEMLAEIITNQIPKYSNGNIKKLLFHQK

[5] = tested on: C2C12; test: Cytotoxicity against mouse C2C12 cells assessed as reduction in cell viability at 10 uM after 3 days by MTT assay; type: cell-based; conditions: c2c12, 72 h
[6] = molecular target: T3, Androgen receptor (Mus musculus) (UniProt P19091); test: Antagonist activity at mouse androgen receptor expressed in mouse C2C12 cells at 5 uM pretreated for 1 day measured 36 hrs post transfection by luciferase reporter gene assay in presence of DHT; type: cell-based
T3 sequence (whole entry): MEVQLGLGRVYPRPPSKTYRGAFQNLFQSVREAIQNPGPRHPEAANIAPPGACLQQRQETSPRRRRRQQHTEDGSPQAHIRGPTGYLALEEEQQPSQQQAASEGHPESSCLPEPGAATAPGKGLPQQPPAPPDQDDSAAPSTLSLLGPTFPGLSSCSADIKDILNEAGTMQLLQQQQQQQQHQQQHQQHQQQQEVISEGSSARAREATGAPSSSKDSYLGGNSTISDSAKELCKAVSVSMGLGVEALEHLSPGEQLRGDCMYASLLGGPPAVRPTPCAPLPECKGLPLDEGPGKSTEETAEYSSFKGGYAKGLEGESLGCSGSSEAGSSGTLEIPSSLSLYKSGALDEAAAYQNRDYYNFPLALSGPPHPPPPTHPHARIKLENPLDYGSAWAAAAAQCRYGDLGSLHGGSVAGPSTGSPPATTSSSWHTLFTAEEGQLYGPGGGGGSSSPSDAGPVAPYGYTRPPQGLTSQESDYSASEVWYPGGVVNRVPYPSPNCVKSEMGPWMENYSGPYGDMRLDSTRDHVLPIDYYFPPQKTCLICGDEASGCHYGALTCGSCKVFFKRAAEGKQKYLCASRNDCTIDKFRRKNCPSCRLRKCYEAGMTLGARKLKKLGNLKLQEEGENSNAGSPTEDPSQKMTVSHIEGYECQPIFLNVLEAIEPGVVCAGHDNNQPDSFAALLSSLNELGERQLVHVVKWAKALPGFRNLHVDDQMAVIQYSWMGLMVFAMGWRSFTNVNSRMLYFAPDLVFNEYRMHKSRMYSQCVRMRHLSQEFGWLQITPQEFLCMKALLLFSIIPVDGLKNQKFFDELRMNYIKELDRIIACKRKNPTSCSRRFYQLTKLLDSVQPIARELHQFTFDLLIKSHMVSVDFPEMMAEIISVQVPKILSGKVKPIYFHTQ

[7] = tested on: LNCaP; test: Cytotoxicity against human LNCAP cells assessed as reduction in cell viability at 10 uM after 3 days by MTT assay in presence of DHT and E2; type: functional, cell-based

| Compound | IC50 [1] | growth inhibition (GI) [2] | inhibition [3] | inhibition [4] | Activity [5] | inhibition [6] | Activity [7] | inhibition of growth at 10 µM ([2]; 120 h, read-out: GI) |
| --- | --- | --- | --- | --- | --- | --- | --- | --- |
| CC(O)(CS(=O)(=O)c1ccc(F)cc1)C(=O)Nc1ccc(C#N)c(C(F)(F)F)c1 (stereo not drawn) [BICALUTAMIDE] | 2380 nM | – | – | – | – | – | – | – |
| Cc1cccc(NC(=O)c2ccc(N3CCc4cc(O)ccc4C3)nc2)n1 | 1250 nM | Active | Active | inactive | Non-toxic | Active | Active | – |
| Cc1cccc(NC(=O)c2ccc(N3CCc4ccccc4C3)nc2)n1 | 4460 nM | – | – | – | – | – | – | – |
| COc1cccc(NC(=O)c2cnc(N3CCc4ccccc4C3)nc2)c1 | 580 nM | – | – | inactive | Non-toxic | Active | Active | – |
| CCCOc1ccc2c(c1)CCN(c1ccc(C(=O)Nc3cccc(C)n3)cn1)C2 | 1010 nM | Active | – | inactive | Non-toxic | Active | Active | – |
| CCCCOc1ccc2c(c1)CCN(c1ccc(C(=O)Nc3cccc(C)n3)cn1)C2 | 410 nM | Active | – | inactive | Non-toxic | Active | Active | – |
| COc1ccc2c(c1)CCN(c1cnc(C(=O)Nc3cccc(C)n3)cn1)C2 | 490 nM | Active | – | inactive | Non-toxic | Active | Active | – |
| Cc1cccc(NC(=O)c2ccc(N3CCc4cc(OCCCc5ccccc5)ccc4C3)nc2)n1 | 350 nM | – | – | inactive | Non-toxic | Active | Active | 80% |
